Structures can show the parent of a compound that is named as a salt. Where two headings read alike, the source gives them in different places.
Key:
[1] = target: T1, human β3 (Homo sapiens, UniProt P13945); test: Human β3-agonist activity (cAMP in CHO cells transfected with human β3 gene); format: cell-based; settings: for Emax: CHO, read-out: Intrinsic activity (%)
T1 construct: And then full length of human β3 gene was cloned using this fragment as a probe; expressed in transfected cells; host or cells: CHO cells (Chinese hamster ovary), pcDNA3 vector
T1 sequence (P13945 whole entry, the tested form may be a part): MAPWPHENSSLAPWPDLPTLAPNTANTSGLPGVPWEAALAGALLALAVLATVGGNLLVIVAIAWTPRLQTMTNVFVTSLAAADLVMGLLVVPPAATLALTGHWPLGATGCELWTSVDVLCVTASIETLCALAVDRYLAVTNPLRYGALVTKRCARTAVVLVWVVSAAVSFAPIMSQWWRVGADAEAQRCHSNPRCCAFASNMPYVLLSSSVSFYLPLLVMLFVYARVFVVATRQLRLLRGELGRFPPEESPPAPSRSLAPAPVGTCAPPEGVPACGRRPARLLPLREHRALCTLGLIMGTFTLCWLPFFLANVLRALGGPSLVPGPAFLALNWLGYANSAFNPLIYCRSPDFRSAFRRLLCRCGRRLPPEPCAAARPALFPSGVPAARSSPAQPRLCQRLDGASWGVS
Procedure: Human β3-agonist Activity
Human β3-agonist activity was examined using CHO cells (chinese hamster ovarian cells) to which pcDNA3 (in vitrogen) cells inserted human β3 gene was transfected. Human β3 fragment was obtained by PCR using human fat tissue cDNA (supplied from Clontech) with a β3 primer [Krief et al, J. Clin. Invest.
The cells were cultured in a HAM F-12 medium containing 10% of fetal bovine serum, 400 μg/ml of Geneticin (Gibco BRL). 100 U/ml penicillin and 100 μg/ml streptomycin. 5×10^5 cells were placed on a 6-well plate and cultured for 24 hours, after which the medium was changed to a HAM F-12 medium without serum and was kept for 2 hours. Each test compound was first dissolved in DMSO, and then diluted with a HAM F-12 medium containing 1 mM isobutylmethyl xanthine and 1 mM ascorbic acid. A 10-fold dilution in the range of 10^−5 to 10^−12 M was added into the cell.
After culturing for 30 minutes, culture medium was withdrawn, 0.5 ml of 1 N NaOH was added and was kept for 20 minutes. And then 0.5 ml of 1 N acetic acid was added with subsequent agitation and centrifugation. Finally the concentration of cAMP were analyzed using cAMP EIA KIT (Cayman). […] Isoprotelenol was purchased from Research Biochimicals International.

[2] = system: canine adipocytes; test: Lipolytic activity in canine fatty cell (glycerol release); format: cell-based, dogs; settings: Canis lupus familiaris, Adipocyte; for EC50: 1 h, glycerol release, canine adipocytes, read-out: ED50 (the source's name); for Emax: read-out: Intrinsic activity (%)
Procedure: Lipolytic Activity in Canine Fatty Cell
Adipose tissues in the omentum were collected from dogs and minced and washed. Krebs-Ringer buffer solution containing 1 mg/ml Collagenase (Sigma) and 1% of bovine serum albumin was added in an amount of 3 ml per one gram of the tissue. These cells were then incubated at 37° C. for 30 minutes with shaking and then undigested tissues were removed with a nylon filter. The resulting adipocytes were washed four times with Krebs-Ringer buffer, and then the concentration of cells was diluted to 2×10^5/ml with Krebs-Ringer buffer solution containing 4% of bovine serum albumin. These cells were transferred to Eppendorf tubes each in an amount of 300 μl.
Each 300 μl of a culture medium containing the test compounds were added to these tubes and was held at 37° C. for 1 hour whith shaking. Stimulation was stoped by cooling with ice. After centrifugation, the adipocytes were taken off with an aspirator, whereupon the glycerol was determined using F-KIT GLTCEROL (Behringer-Manheim).

[3] = cAMP, CHO cells with human β3, read-out: ED50 (the source's name)

Compound	EC50 [1] [nM]	Emax [1] [%]	EC50 [2] [nM]	Emax [2] [%]	EC50 [1, 3] [nM]
OCc1cc(C(O)CNCCOc2ccc3c(c2)[nH]c2ccccc23)ccc1O (racemic) [Example 67, (±)-2-[N-[2-(9H-Carbazol-2-yloxy)ethyl]amino]-1-[4-hydroxy-3-(hydroxymethyl)phenyl]ethanol Hydrochloride]	28	109	54	94	–
CS(=O)(=O)Nc1cc(C(O)CNCCOc2ccc3c(c2)sc2ccccc23)ccc1O (racemic) [Example 38, (±)-N-[5-[2-[2-(Dibenzothiophen-3-yloxy)ethylamino]-1-hydroxyethyl]-2-hydroxyphenyl]methanesulfonamide Hydrochloride]	0.006	76	2.6	103	–
CS(=O)(=O)Nc1cc([C@@H](O)CNCCOc2ccc3c(c2)oc2ccccc23)ccc1O [Example 69, (R)-N-[5-[2-[2-(Dibenzofuran-3-yloxy)ethylamino]-1-hydroxyethyl]-2-hydroxyphenyl]methanesulfonamide Hydrochloride]	0.016	94	0.65	107	–
CN(C)S(=O)(=O)Nc1cc(C(O)CNCCOc2ccc3c(c2)sc2ccccc23)ccc1O (racemic) [Example 40, (±)-N′-[5-[2-[2-(Dibenzothiophen-3-yloxy)ethylamino]-1-hydroxyethyl]-2-hydroxyphenyl]-N, N-dimethylsulfamide Hydrochloride]	200	97	13	92	–
CS(=O)(=O)Nc1cc(C(O)CNCCOc2ccc3c(c2)Cc2cc(N)ccc2-3)ccc1O (racemic) [Example 52, (±)-N-[5-[2-[2-(9H-7-Aminofluoren-2-yloxy)ethylamino]-1-hydroxyethyl]-2-hydroxyphenyl]methanesulfonamide Hydrochloride]	–	78	0.38	100	2.6
O[C@@H](CNCCOc1ccc2c(c1)[nH]c1ccccc12)c1ccccc1 [Example 32, (R)-2-[N-[2-(9H-Carbazol-2-yloxy)ethyl]amino]-1-phenylethanol Hydrochloride]	1600	98	290	94	–
COC(CNCCOc1ccc2c(c1)[nH]c1ccccc12)c1ccc(O)c(NS(C)(=O)=O)c1 (racemic) [Example 90, (±)-N-[5-[2-[2-(9H-Carbazol-2-yloxy)ethylamino]-1-methoxyethyl]-2-hydroxyphenyl]methanesulfonamide Hydrochloride]	190	102	–	–	–
CS(=O)(=O)Nc1cc(C(O)CNCCOc2ccc3c(c2)oc2ccccc23)ccc1Cl (racemic) [Example 57, (±)-N-[5-[2-[2-(Dibenzofuran-3-yloxy)ethylamino]-1-hydroxyethyl]-2-chlorophenyl]methanesulfonamide Hydrochloride]	230	68	–	–	–
CC(C)NCC(O)c1ccc(O)c(O)c1 (stereo not shown) [Isoproterenol, reference compound]	–	–	1.7	100	–
CS(=O)(=O)Nc1cc(C(O)CNCCOc2ccc3c(c2)[nH]c2ccccc23)ccc1Cl (racemic) [Example 6, (±)-N-[5-[2-[2-(9H-Carbazol-2-yloxy)ethylamino]-1-hydroxyethyl]-2-chlorophenyl]methanesulfonamide Hydrochloride]	33	119	–	–	–
O=CNc1cccc(C(O)CNCCOc2ccc3c(c2)[nH]c2ccccc23)c1 (racemic) [Example 17, (±)-N-[3-[2-[2-(9H-Carbazol-2-yloxy)ethylamino]-1-hydroxyethyl]phenyl]formamide Hydrochloride]	910	53	–	–	–
CN(C)S(=O)(=O)Nc1cc([C@@H](O)CNCCOc2ccc3c(c2)oc2ccccc23)ccc1O [Example 75, (R)-N′-[5-[2-[2-(Dibenzofuran-3-yloxy)ethylamino]-1-hydroxyethyl]-2-hydroxyphenyl]-N,N-dimethylsulfamide Hydrochloride]	88	105	–	–	–
CNS(=O)(=O)c1cc([C@@H](O)CNCCOc2ccc3c(c2)[nH]c2ccccc23)ccc1O [Example 81, (R)-N-methyl-[5-(2-[2-(9H-Carbazol-2-yloxy)ethylamino]-1-hydroxyethyl]-2-hydroxy]benzenesulfonamide Hydrochloride]	–	98	–	–	6.2
CS(=O)(=O)Nc1cccc(C(O)CNCCOc2ccc3c(c2)oc2ccccc23)c1 (racemic) [Example 9, (±)-N-[3-[2-[2-(Dibenzofuran-3-yloxy)ethylamino]-1-hydroxyethl]phenyl]methanesulfonamide Hydrochloride]	–	85	250	106	750
CN(C)S(=O)(=O)c1cc(C(O)CNCCOc2ccc3c(c2)[nH]c2ccccc23)ccc1O (racemic) [Example 89, (±)-N,N-Dimethyl-(5-[2-[2-(9H-carbazol-2-yloxy)ethylamino]-1-hydroxyethyl]-2-hydroxy]benzenesulfonamide Hydrochloride]	–	73	–	–	350
CN(C)S(=O)(=O)Nc1cc([C@H](O)CNCCOc2ccc3c(c2)oc2ccccc23)ccc1O [Example 76, (S)-N′-[5-[2-[2-(Dibenzofuran-3-yloxy)ethylamino]-1-hydroxyethyl]2-hydroxyphenyl]-N,N-dimethylsulfamide Hydrochloride]	520	131	–	–	–
CS(=O)(=O)Nc1cccc([C@H](O)CNCCOc2ccc3c(c2)[nH]c2ccccc23)c1 [Example 15, (S)-N-[3-[2-[2-(9H-Carbazol-2-yloxy)ethylamino]-1-hydroxyethyl]phenyl]methanesulfonamide Hydrochloride]	110	88	–	–	–
CS(=O)(=O)Nc1cc(C(O)CNCCOc2ccc3c(c2)sc2ccccc23)ccc1F (racemic) [Example 56, (±)-N-[5-[2-[2-(Dibenzothiophen-3-yloxy)ethylamino]-1-hydroxyethyl]-2-fluorophenyl]methanesulfonamide Hydrochloride]	630	97	–	–	–
CS(=O)(=O)Nc1cc(C(O)CNCCOc2ccc3c(c2)[nH]c2ccccc23)ccc1CO (racemic) [Example 84, (±)-N-[5-[2-[2-(9H-Carbazol-2-yloxy)ethylamino]-1-hydroxyethyl]-2-(hydroxymethyl)phenyl]methanesulfonamide]	–	71	–	–	58
CS(=O)(=O)Nc1cc(O)cc(C(O)CNCCOc2ccc3c(c2)[nH]c2ccccc23)c1 (racemic) [Example 62, (±)-N-[5-[2-[2-(9H-Carbazol-2-yloxy)ethylamino]-1-hydroxyethyl]-3-hydroxyphenyl]methanesulfonamide Hydrochloride]	210	106	–	–	–
CS(=O)(=O)Nc1cc([C@H](O)CNCCOc2ccc3c(c2)[nH]c2ccccc23)ccc1F [Example 78, (S)-N-[5-[2-[2-(9H-Carbazol-2-yloxy)ethylamino]-1-hydroxyethyl]-2-fluorophenyl]methanesulfonamide Hydrochloride]	51	110	–	–	–
CN(C)S(=O)(=O)Nc1cc([C@H](O)CNCCOc2ccc3c(c2)[nH]c2ccccc23)ccc1O [Example 74, (S)-N′-[5-[2-[2-(9H-Carbazol-2-yloxy)ethylamino]-1-hydroxyethyl]-2-hydroxyphenyl]-N,N-dimethylsulfamide Hydrochloride]	0.74	114	–	–	–
Oc1ccc(C(O)CNCCOc2ccc3c(c2)[nH]c2ccccc23)cc1 (racemic) [Example 29, (±)-2-[N-[2-(9H-Carbazol-2-yloxy)ethyl]amino]-1-(4-hydroxyphenyl)ethanol Hydrochloride]	250	120	–	–	–
O=S(=O)(Cc1ccccc1)Nc1cccc(C(O)CNCCOc2ccc3c(c2)[nH]c2ccccc23)c1 (racemic) [Example 8, (±)-N-[3-[2-[2-(9H-Carbazol-2-yloxy)ethylamino]-1-hydroxyethyl]phenyl]phenylmethanesulfonamide Hydrochloride]	720	47	–	–	–
CS(=O)(=O)Nc1cc(C(O)CNCCOc2ccc3c(c2)[nH]c2ccccc23)ccc1F (racemic) [Example 5, (±)-N-[5-[2-[2-(9H-Carbazol-2-yloxy)ethylamino]-1-hydroxyethyl]-2-fluorophenyl]methanesulfonamide Hydrochloride]	66	114	–	–	–

From patent US6545053B1, “Tricyclic compounds and drug compositions containing same” (Asahi Kasei Kogyo Kabushiki Kaisha, priority 1996, dated 2003)
